Laboratory results taken from ChEMBL document CHEMBL1135216, “New 2-(1-adamantylcarbonyl)pyridine and 1-acetyladamantane thiosemicarbazones-thiocarbonohydrazones: cell growth inhibitory, antiviral and antimicrobial activity evaluation” (Bioorg Med Chem Lett, 2002).
In brackets after ≈: the same amount, converted by molar mass.

Experiments:
HL-60 [1] = assay: Tested for the inhibitory concentration against cell growth of human leukemic cell line HL60; assay type: functional
HEL [2] = assay: Tested for antiviral activity against human cytomegalovirus (AD-169) in human embryonic lung fibroblasts; assay type: functional
HL-60 [3] = assay: Tested for the inhibitory concentration against cell growth of HL60 acute myeloid leukemia using MTT assay; assay type: functional; details: Homo sapiens
K562 [4] = assay: Tested for the concentration required to reduce the viability of leukemia cells by 50% against cell growth of K562 chronic myeloid leukemia using MTT assay; assay type: functional; details: Homo sapiens, read-out: LC50 (the source's name)
Vero [5] = assay: Tested for cytotoxic activity in African green monkey kidney cells (Vero); assay type: functional; details: Chlorocebus sabaeus
Vero [6] = assay: Tested for antiviral activity against parainfluenza virus in african green monkey kidney cell (Vero); assay type: functional; details: Chlorocebus sabaeus
HeLa [7] = assay: Tested for antiviral activity against coxsackie-B4 virus in human epithelial cell line; assay type: functional
Vero [8] = assay: Tested for antiviral activity against Punta toro virus in African green monkey kidney cell (Vero); assay type: functional; details: Chlorocebus sabaeus
K562 [9] = assay: Tested for the inhibitory concentration against cell growth of human leukemic cell line K562; assay type: functional
CCRF-CEM [10] = assay: Tested for the concentration required to reduce the viability of leukemia cells by 50% against cell growth of T cell leukemia cell line CCRF-CEM using MTT assay; assay type: functional; details: Homo sapiens, read-out: LC50 (the source's name)
HEL [11] = assay: Tested for cytotoxic activity in human embryonic lung fibroblast (HEL); assay type: functional
Vero [12] = assay: Tested for antiviral activity against Sindbis virus in African green monkey kidney cell (Vero); assay type: functional; details: Chlorocebus sabaeus
E6SM [13] = assay: Tested for cytotoxic activity in human embryonic skin muscle fibroblast (E6SM); assay type: functional; details: Muscle tissue
CCRF-CEM [14] = assay: Tested for the inhibitory concentration against cell growth of human leukemic cell line CCRF-CEM; assay type: functional
HuT78 [15] = assay: Tested for the inhibitory concentration against cell growth of HuT78 T lymphoma using MTT assay; assay type: functional; details: Homo sapiens
E6SM [16] = assay: Tested for antiviral activity against vaccinia virus in human embryonic skin muscle fibroblast; assay type: functional; details: Muscle tissue
Vero [17] = assay: Tested for antiviral activity against Reo-1 virus in African green monkey kidney cell (Vero); assay type: functional; details: Chlorocebus sabaeus
MOLT-4 [18] = assay: Tested for the inhibitory concentration against cell growth of Tcell leukemic cell line MOLT-4 using MTT assay; assay type: functional; details: Homo sapiens
HuT78 [19] = assay: Tested for the concentration required to reduce the viability of leukemia cells by 50% against cell growth of HuT78 T lymphoma using MTT assay; assay type: functional; details: Homo sapiens, read-out: LC50 (the source's name)
Vero [20] = assay: Tested for antiviral activity against coxsackie B-4 virus in African green monkey kidney cell (Vero); assay type: functional; details: Chlorocebus sabaeus
RPMI-8226 [21] = assay: Tested for the concentration required to reduce the viability of leukemia cells by 50% against cell growth of RPMI8226 multiple myeloma using MTT assay; assay type: functional; details: Homo sapiens, read-out: LC50 (the source's name)
HEL [22] = assay: Tested for antiviral activity against thymidine kinase deficient Varicella zoster virus in human embryonic lung fibroblasts; assay type: functional
MT4 [23] = assay: (§1) Tested for effective concentration required to protect MT-4 cells against the cytopathicity of HIV-2(ROD); assay type: functional, cell-based; details: Homo sapiens
HL-60 [24] = assay: Tested for the concentration required to reduce the viability of leukemia cells by 50% against cell growth of HL60 acute myeloid leukemia using MTT assay; assay type: functional; details: Homo sapiens, read-out: LC50 (the source's name)
Staphylococcus aureus = assay: Tested for the antimicrobial activity against Staphylococcus aureus ATCC 6538; assay type: functional
HeLa [25] = assay: The compound was tested for antiviral activity against VSV-virus in human epithelial cells; assay type: functional
MT4 [26] = assay: Tested for effective concentration required to protect MT-4 cells against the cytopathicity of HIV-1(IIIB); assay type: functional; details: Homo sapiens, read-out: LC50 (the source's name)
MOLT-4 [27] = assay: Tested for the concentration required to reduce the viability of leukemia cells by 50% against cell growth of T cell leukemia cell line MOLT-4 using MTT assay; assay type: functional; details: Homo sapiens, read-out: LC50 (the source's name)
E6SM [28] = assay: Tested for antiviral activity against herpes simplex virus type 1(KOS) in E6SM cell line(human embryonic skin-muscle fibroblasts); assay type: functional
[29] = tested on: Staphylococcus epidermidis; assay: Tested for the antimicrobial activity against Staphylococcus epidermidis ATCC 12228; assay type: functional
E6SM [30] = assay: Antiviral activity against thymidine kinase-deficient (TK-HSV-2G) virus in E6SM cell line(human embryonic skin-muscle fibroblasts); assay type: functional
CCRF-CEM [31] = assay: Tested for the inhibitory concentration against cell growth of Tcell leukemic cell line CCRF-CEM using MTT assay; assay type: functional; details: Homo sapiens
MOLT-4 [32] = assay: Tested for the inhibitory concentration against cell growth of human leukemic cell line MOLT-4; assay type: functional
HeLa [33] = assay: Tested for cytotoxic activity in human epithelial cell line (HeLa); assay type: functional
MT4 [34] = assay: Tested for cytotoxic concentration required to reduce the viability of MT-4 cells by 50%; assay type: functional, cell-based; details: Homo sapiens, read-out: EC50 (the source's name)
E6SM [35] = assay: Antiviral activity against thymidine kinase-deficient (TK-HSV-1)virus in E6SM cell line(human embryonic skin-muscle fibroblasts); assay type: functional
Staphylococcus hominis = assay: Tested for the antimicrobial activity against Staphylococcus hominis ATCC 27844; assay type: functional
Escherichia coli = assay: Tested for the antimicrobial activity against Escherichia coli ATCC 25922; assay type: functional
HuT78 [36] = assay: Tested for the inhibitory concentration against cell growth of human leukemic cell line HuT78; assay type: functional
RPMI-8226 [37] = assay: Tested for the inhibitory concentration against cell growth of […] multiple myeloma using MTT assay; assay type: functional; details: Homo sapiens
HEL [38] = assay: Tested for antiviral activity against thymidine kinase wild type Varicella zoster virus in human embryonic lung fibroblast; assay type: functional
E6SM [39] = assay: Tested for antiviral activity against VSV-virus in human embryonic skin muscle fibroblasts; assay type: functional; details: Muscle tissue
Klebsiella pneumoniae = assay: Tested for the antimicrobial activity against Klebsiella pneumoniae ATCC 13883; assay type: functional
RPMI-8226 [40] = assay: Tested for the inhibitory concentration against cell growth of human leukemic cell line RPMI8226; assay type: functional
K562 [41] = assay: Tested for the inhibitory concentration against cell growth of K562 chronic myeloid leukemia using MTT assay; assay type: functional; details: Homo sapiens
E6SM [42] = assay: Tested for antiviral activity against thymidine kinase-deficient (TK-HSV-2G) virus in E6SM cell line(human embryonic skin-muscle fibroblasts); assay type: functional
E6SM [43] = assay: The compound was tested for antiviral activity against thymidine kinase-deficient (TK-HSV-1)virus in E6SM cell line(human embryonic skin-muscle fibroblasts); assay type: functional
MT4 [44] = assay: as §1; assay type: functional; details: Homo sapiens, read-out: LC50 (the source's name)

SMILES: N/N=C(\S)N/N=C(/c1ccccn1)C12CC3CC(CC(C3)C1)C2
- TGI (HL-60 [1]): 100 µM
- MIC (HEL [2]): > 5 µg/mL
- TGI (HL-60 [3]): 100 µM
- CC50 (K562 [4]): 100 µM
- MCC (Vero [5]): 80 µg/mL
- MIC (Vero [6]): > 80 µg/mL
- MIC (HeLa [7]): > 80 µg/mL
- MIC (Vero [8]): > 80 µg/mL
- GI50 (K562 [9]): 41.7 µM
- CC50 (CCRF-CEM [10]): 100 µM
- MCC (HEL [11]): > 20 µg/mL
- MIC (Vero [12]): > 80 µg/mL
- MCC (E6SM [13]): > 80 µg/mL
- GI50 (CCRF-CEM [14]): 100 µM
- TGI (HuT78 [15]): 100 µM
- MIC (E6SM [16]): > 16 µg/mL
- MIC (Vero [17]): > 80 µg/mL
- TGI (MOLT-4 [18]): 100 µM
- CC50 (HuT78 [19]): 100 µM
- MIC (Vero [20]): > 80 µg/mL
- CC50 (RPMI-8226 [21]): 100 µM
- MIC (HEL [22]): > 20 µg/mL
- EC50 (MT4 [23]): > 27 µM
- CC50 (HL-60 [24]): 100 µM
- MIC (Staphylococcus aureus): > 3040 µg/mL
- MIC (HeLa [25]): > 80 µg/mL
- EC50 (MT4 [26]): > 27 µM
- CC50 (MOLT-4 [27]): 100 µM
- MIC (E6SM [28]): > 16 µg/mL
- MIC [29]: > 3040 µg/mL
- MIC (E6SM [30]): > 16 µg/mL
- TGI (CCRF-CEM [31]): 100 µM
- GI50 (MOLT-4 [32]): 100 µM
- MCC (HeLa [33]): 400 µg/mL
- CC50 (MT4 [34]): 27.3 µM
- MIC (E6SM [35]): > 16 µg/mL
- MIC (Staphylococcus hominis): > 3040 µg/mL
- MIC (Escherichia coli): > 3040 µg/mL
- GI50 (HuT78 [36]): 100 µM
- TGI (RPMI-8226 [37]): 100 µM
- MIC (HEL [38]): > 20 µg/mL
- MIC (E6SM [39]): > 16 µg/mL
- MIC (Klebsiella pneumoniae): > 3040 µg/mL
- GI50 (RPMI-8226 [40]): 100 µM
- TGI (K562 [41]): 100 µM

SMILES: C/C(=N/N=C(/S)N/N=C(\S)c1ccc(Cl)cc1)C12CC3CC(CC(C3)C1)C2
- GI50 (HL-60 [1]): 100 µM
- MIC (HEL [2]): > 2 µg/mL
- TGI (HL-60 [3]): 100 µM
- CC50 (K562 [4]): 100 µM
- MCC (Vero [5]): > 400 µg/mL
- MIC (Vero [6]): > 40 µg/mL
- MIC (HeLa [7]): > 40 µg/mL
- MIC (Vero [8]): > 40 µg/mL
- GI50 (K562 [9]): 100 µM
- CC50 (CCRF-CEM [10]): 100 µM
- MCC (HEL [11]): > 5 µg/mL
- MIC (Vero [12]): > 40 µg/mL
- MCC (E6SM [13]): 200 µg/mL
- GI50 (CCRF-CEM [14]): 100 µM
- TGI (HuT78 [15]): 100 µM
- MIC (E6SM [16]): > 5 µg/mL
- MIC (Vero [17]): > 40 µg/mL
- TGI (MOLT-4 [18]): 100 µM
- CC50 (HuT78 [19]): 100 µM
- MIC (Vero [20]): > 40 µg/mL
- CC50 (RPMI-8226 [21]): 100 µM
- MIC (HEL [22]): > 2 µg/mL
- CC50 (HL-60 [24]): 100 µM
- MIC (Staphylococcus aureus): 1150 µg/mL (≈ 2730 µM)
- MIC (E6SM [42]): > 40 µg/mL
- MIC (HeLa [25]): > 40 µg/mL
- EC50 (MT4 [26]): > 10 µM
- CC50 (MOLT-4 [27]): 100 µM
- MIC (E6SM [28]): > 40 µg/mL
- MIC [29]: 1150 µg/mL (≈ 2730 µM)
- TGI (CCRF-CEM [31]): 100 µM
- GI50 (MOLT-4 [32]): 100 µM
- MCC (HeLa [33]): > 200 µg/mL
- CC50 (MT4 [34]): 10.1 µM
- MIC (Staphylococcus hominis): 1150 µg/mL (≈ 2730 µM)
- MIC (Escherichia coli): > 2300 µg/mL
- GI50 (HuT78 [36]): 100 µM
- MIC (E6SM [43]): > 40 µg/mL
- TGI (RPMI-8226 [37]): 100 µM
- CC50 (MT4 [44]): > 10 µM
- MIC (HEL [38]): > 2 µg/mL
- MIC (E6SM [39]): > 40 µg/mL
- MIC (Klebsiella pneumoniae): > 2300 µg/mL
- GI50 (RPMI-8226 [40]): 100 µM
- TGI (K562 [41]): 100 µM
